# Where two headings read alike, the source gives them in different places.
# How the values were obtained:
# [1] = test system: A. non-baumannii isolates (n = 87); assay: MIC, broth microdilution (EUCAST), A. non-baumannii isolates; type: cell-based, Acinetobacter spp. (non-baumannii); settings: for MIC: read-out: MIC
# Procedure, shortened: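 Clinical isolates from the Spanish National Acinetobacter spp. 2020 collection were tested by EUCAST v.15 broth microdilution, including enmetazobactam on its own. Duplicate runs used A. baumannii ATCC 19606 as reference.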
# [2] = test system: A. baumannii ATCC 19606 cells; assay: Cell morphology assay, bright-field microscopy; type: cell-based, Acinetobacter baumannii; settings: A. baumannii ATCC 19606, overnight exposure at 1× MIC
# Protocol: In order to confirm the involvement of PBPs as targets of enmetazobactam, cell morphology assays involving exposure to enmetazobactam and sulbactam were performed following the methodology described in Supplementary materials and methods.
# To confirm the involvement of PBPs as targets of enmetazobactam, the cellular morphology of A. baumannii ATCC 19606 reference strain was analyzed after exposure to the compound at different concentrations. Bright-field microscopy was used to monitor the cell morphology. […] For microscopic visualization, aliquots of each sample were obtained, stained with crystal violet solution and observed using an Olympus BX61 microscope (Olympus).
# Changes in cell morphology were determined on the basis of alterations in septal integrity, abnormal elongation, spheroplast formation and filamentation, patterns previously associated with the selective inhibition of PBP1, PBP2 and PBP3 in Gram-negative bacilli. Specifically, PBP1 inhibition has been linked to cell lysis, PBP2 inhibition has been linked to spherification, and PBP3 inhibition to defective cell division and filament formation (1, 2). The results were qualitatively compared across different treatments to infer the potential selectivity of enmetazobactam for specific PBPs.
# [3] = Acinetobacter, A. non-baumannii isolates (n=87), ETZ fixed 8 mg/L in combinations
structure (smiles),measurement,setting,value
CC1(C)[C@H](C(=O)O)N2C(=O)C[C@H]2S1(=O)=O [sulbactam],MIC,"[1]; Acinetobacter pittii, MBC set, isolate NO-Ab89, A. pittii",0.5 µg/mL
same,MIC,"[1]; Acinetobacter pittii, isolate NO-Ab59, Acinetobacter pittii, in combinations ETZ fixed at 8 mg/L",1 µg/mL
same,MIC,"[1]; Acinetobacter pittii, isolate NO-Ab66, Acinetobacter pittii, in combinations ETZ fixed at 8 mg/L",1 µg/mL
same,MIC,"[1]; Acinetobacter pittii, isolate NO-Ab73, Acinetobacter pittii, in combinations ETZ fixed at 8 mg/L",0.5 µg/mL
same,MIC,"[1]; Acinetobacter pittii, isolate NO-Ab75, Acinetobacter pittii, in combinations ETZ fixed at 8 mg/L",1 µg/mL
same,MIC,"[1]; Acinetobacter pittii, isolate NO-Ab78, Acinetobacter pittii, in combinations ETZ fixed at 8 mg/L",0.5 µg/mL
same,MIC,"[1]; Acinetobacter pittii, isolate NO-Ab82, Acinetobacter pittii, in combinations ETZ fixed at 8 mg/L",0.5 µg/mL
same,MIC,"[1]; Acinetobacter pittii, isolate NO-Ab89, Acinetobacter pittii, in combinations ETZ fixed at 8 mg/L",0.5 µg/mL
same,MIC,"[1]; Acinetobacter pittii, isolate NO-Ab90, Acinetobacter pittii, in combinations ETZ fixed at 8 mg/L",0.5 µg/mL
same,MIC,"[1]; Acinetobacter pittii, isolate NO-Ab97, Acinetobacter pittii, in combinations ETZ fixed at 8 mg/L",1 µg/mL
same,MIC,"[1]; Acinetobacter pittii, isolate NO-Ab105, Acinetobacter pittii, in combinations ETZ fixed at 8 mg/L",1 µg/mL
same,MIC,"[1]; Acinetobacter pittii, isolate NO-Ab106, Acinetobacter pittii, in combinations ETZ fixed at 8 mg/L",0.5 µg/mL
same,MIC,"[1]; Acinetobacter pittii, isolate NO-Ab107, Acinetobacter pittii, in combinations ETZ fixed at 8 mg/L",0.5 µg/mL
same,MIC,"[1]; Acinetobacter pittii, isolate NO-Ab111, Acinetobacter pittii, in combinations ETZ fixed at 8 mg/L",1 µg/mL
same,MIC,"[1]; Acinetobacter pittii, isolate NO-Ab113, Acinetobacter pittii, in combinations ETZ fixed at 8 mg/L",1 µg/mL
same,MIC,"[1]; Acinetobacter pittii, isolate NO-Ab118, Acinetobacter pittii, in combinations ETZ fixed at 8 mg/L",2 µg/mL
same,MIC,"[1]; Acinetobacter pittii, isolate NO-Ab135, Acinetobacter pittii, in combinations ETZ fixed at 8 mg/L",0.5 µg/mL
same,MIC,"[1]; Acinetobacter pittii, isolate NO-Ab145, Acinetobacter pittii, in combinations ETZ fixed at 8 mg/L",1 µg/mL
same,MIC,"[1]; Acinetobacter pittii, isolate NO-Ab151, Acinetobacter pittii, in combinations ETZ fixed at 8 mg/L",2 µg/mL
same,MIC,"[1]; Acinetobacter pittii, isolate NO-Ab154, Acinetobacter pittii, in combinations ETZ fixed at 8 mg/L",0.5 µg/mL
same,MIC,"[1]; Acinetobacter pittii, isolate NO-Ab157, Acinetobacter pittii, in combinations ETZ fixed at 8 mg/L",1 µg/mL
same,MIC,"[1]; Acinetobacter pittii, isolate NO-Ab162, Acinetobacter pittii, in combinations ETZ fixed at 8 mg/L",0.5 µg/mL
same,MIC,"[1]; Acinetobacter pittii, isolate NO-Ab164, Acinetobacter pittii, in combinations ETZ fixed at 8 mg/L",0.5 µg/mL
same,MIC,"[1]; Acinetobacter pittii, isolate NO-Ab178, Acinetobacter pittii, in combinations ETZ fixed at 8 mg/L",0.5 µg/mL
same,MIC,"[1]; Acinetobacter pittii, isolate NO-Ab197, Acinetobacter pittii, in combinations ETZ fixed at 8 mg/L",0.5 µg/mL
same,MIC,"[1]; Acinetobacter proteolyticus, isolate NO-Ab99, Acinetobacter proteolyticus, in combinations ETZ fixed at 8 mg/L",1 µg/mL
same,MIC,"[1]; Acinetobacter proteolyticus, isolate NO-Ab102, Acinetobacter proteolyticus, in combinations ETZ fixed at 8 mg/L",1 µg/mL
same,MIC,"[1]; Acinetobacter proteolyticus, isolate NO-Ab210, Acinetobacter proteolyticus, in combinations ETZ fixed at 8 mg/L",0.25 µg/mL
same,MIC,"[1]; Acinetobacter radioresistens, isolate NO-Ab175, Acinetobacter radioresistens, in combinations ETZ fixed at 8 mg/L",1 µg/mL
same,MIC,"[1]; Acinetobacter radioresistens, isolate NO-Ab215, Acinetobacter radioresistens, in combinations ETZ fixed at 8 mg/L",0.25 µg/mL
same,MIC,"[1]; Acinetobacter ursingii, isolate NO-Ab3, Acinetobacter ursingii, in combinations ETZ fixed at 8 mg/L",0.25 µg/mL
same,MIC,"[1]; Acinetobacter ursingii, isolate NO-Ab64, Acinetobacter ursingii, in combinations ETZ fixed at 8 mg/L",1 µg/mL
same,MIC,"[1]; Acinetobacter ursingii, isolate NO-Ab87, Acinetobacter ursingii, in combinations ETZ fixed at 8 mg/L",0.12 µg/mL
same,MIC,"[1]; Acinetobacter ursingii, isolate NO-Ab103, Acinetobacter ursingii, in combinations ETZ fixed at 8 mg/L",0.5 µg/mL
same,MIC,"[1]; Acinetobacter ursingii, isolate NO-Ab119, Acinetobacter ursingii, in combinations ETZ fixed at 8 mg/L",0.5 µg/mL
same,MIC,"[1]; Acinetobacter ursingii, isolate NO-Ab120, Acinetobacter ursingii, in combinations ETZ fixed at 8 mg/L",0.5 µg/mL
same,MIC,"[1]; Acinetobacter ursingii, isolate NO-Ab123, Acinetobacter ursingii, in combinations ETZ fixed at 8 mg/L",2 µg/mL
same,MIC,"[1]; Acinetobacter ursingii, isolate NO-Ab126, Acinetobacter ursingii, in combinations ETZ fixed at 8 mg/L",1 µg/mL
same,MIC,"[1]; Acinetobacter ursingii, isolate NO-Ab147, Acinetobacter ursingii, in combinations ETZ fixed at 8 mg/L",2 µg/mL
same,MIC,"[1]; Acinetobacter ursingii, isolate NO-Ab155, Acinetobacter ursingii, in combinations ETZ fixed at 8 mg/L",1 µg/mL
same,MIC,"[1]; Acinetobacter ursingii, isolate NO-Ab165, Acinetobacter ursingii, in combinations ETZ fixed at 8 mg/L",1 µg/mL
same,MIC,"[1]; Acinetobacter ursingii, isolate NO-Ab166, Acinetobacter ursingii, in combinations ETZ fixed at 8 mg/L",0.25 µg/mL
same,MIC,"[1]; Acinetobacter ursingii, isolate NO-Ab214, Acinetobacter ursingii, in combinations ETZ fixed at 8 mg/L",≤ 0.06 µg/mL
same,MIC,"[1]; Acinetobacter ursingii, isolate NO-Ab221, Acinetobacter ursingii, in combinations ETZ fixed at 8 mg/L",0.5 µg/mL
same,MIC,"[1]; Acinetobacter ursingii, isolate NO-Ab222, Acinetobacter ursingii, in combinations ETZ fixed at 8 mg/L",0.5 µg/mL
same,MIC,"[1]; Acinetobacter, MBC set, isolate NO-Ab84, A. bereziniae",1 µg/mL
same,MIC,"[1]; Acinetobacter, MBC set, isolate NO-Ab88, A. dijkshoorniae",0.5 µg/mL
same,MIC,"[1]; Acinetobacter, isolate NO-Ab146, Acinetobacter iwoffii, in combinations ETZ fixed at 8 mg/L",2 µg/mL
same,MIC,"[1]; Acinetobacter, isolate NO-Ab159, Acinetobacter iwoffii, in combinations ETZ fixed at 8 mg/L",0.5 µg/mL
same,MIC50,[1]; [3],1 µg/mL
same,MIC90,[1]; [3],2 µg/mL
same,cell morphology,[2],long filaments

# From publication PMC12888861, “Antibacterial activity of enmetazobactam against Acinetobacter spp.: a molecular dissection of mechanism of action and resistance determinants” (Antimicrobial Agents and Chemotherapy, 2025)
